The target in one test is T1, G2019S LRRK2 (Homo sapiens, UniProt Q5S007, G2019S).
T1 construct: expressed in transfected cells; host or cells: HEK293 (ATCC CRL-1573)
The test can be described thus: LRRK2 degradation HiBit assay, G2019S LRRK2 tagged with a HiBit tag expressed in HEK293 cells. Conditions: 24 hours compound incubation; for Dmax: HEK293, HEK293 cells; for DC50: HEK293 cells. In kind it is cell-based. The essentials: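 HEK293 cells were transiently transfected with G2019S LRRK2 carrying a C-terminal HiBit tag (ubiquitin promoter) plus firefly luciferase, then exposed to compound for 24 h at 37 °C. Dual luminescence gave the HiBit/luciferase ratio ×1000, normalised to DMSO. DC50 and Dmax were fitted per plate.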

The target in the next test is T2, wildtype LRRK2 (Homo sapiens, UniProt Q5S007).
T2 construct: endogenous in cells; host or cells: HEK293 with HiBit knocked in at the 3' end of the endogenous LRRK2 gene, stably expressing firefly luciferase
Briefly: LRRK2 degradation HiBit assay, wildtype LRRK2 tagged with a HiBit tag in HEK293 cells. Conditions: 24 hours compound incubation; for DC50: read-out: *WT DC50. In kind it is cell-based. The essentials:
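HEK293 cells transiently co-transfected with ubiquitin-promoter-driven C-terminally HiBit-tagged wildtype LRRK2 plus firefly luciferase, then treated with compound for 24 h at 37° C. HiBit/luciferase ratio ×1000 normalized to DMSO median; DC50 and Dmax fitted per plate, six replicates across two days.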
In general terms: With HiBiT, luminescence reflects the tagged protein that the partner subunit can reach.

T1 sequence (Q5S007 whole entry G2019S): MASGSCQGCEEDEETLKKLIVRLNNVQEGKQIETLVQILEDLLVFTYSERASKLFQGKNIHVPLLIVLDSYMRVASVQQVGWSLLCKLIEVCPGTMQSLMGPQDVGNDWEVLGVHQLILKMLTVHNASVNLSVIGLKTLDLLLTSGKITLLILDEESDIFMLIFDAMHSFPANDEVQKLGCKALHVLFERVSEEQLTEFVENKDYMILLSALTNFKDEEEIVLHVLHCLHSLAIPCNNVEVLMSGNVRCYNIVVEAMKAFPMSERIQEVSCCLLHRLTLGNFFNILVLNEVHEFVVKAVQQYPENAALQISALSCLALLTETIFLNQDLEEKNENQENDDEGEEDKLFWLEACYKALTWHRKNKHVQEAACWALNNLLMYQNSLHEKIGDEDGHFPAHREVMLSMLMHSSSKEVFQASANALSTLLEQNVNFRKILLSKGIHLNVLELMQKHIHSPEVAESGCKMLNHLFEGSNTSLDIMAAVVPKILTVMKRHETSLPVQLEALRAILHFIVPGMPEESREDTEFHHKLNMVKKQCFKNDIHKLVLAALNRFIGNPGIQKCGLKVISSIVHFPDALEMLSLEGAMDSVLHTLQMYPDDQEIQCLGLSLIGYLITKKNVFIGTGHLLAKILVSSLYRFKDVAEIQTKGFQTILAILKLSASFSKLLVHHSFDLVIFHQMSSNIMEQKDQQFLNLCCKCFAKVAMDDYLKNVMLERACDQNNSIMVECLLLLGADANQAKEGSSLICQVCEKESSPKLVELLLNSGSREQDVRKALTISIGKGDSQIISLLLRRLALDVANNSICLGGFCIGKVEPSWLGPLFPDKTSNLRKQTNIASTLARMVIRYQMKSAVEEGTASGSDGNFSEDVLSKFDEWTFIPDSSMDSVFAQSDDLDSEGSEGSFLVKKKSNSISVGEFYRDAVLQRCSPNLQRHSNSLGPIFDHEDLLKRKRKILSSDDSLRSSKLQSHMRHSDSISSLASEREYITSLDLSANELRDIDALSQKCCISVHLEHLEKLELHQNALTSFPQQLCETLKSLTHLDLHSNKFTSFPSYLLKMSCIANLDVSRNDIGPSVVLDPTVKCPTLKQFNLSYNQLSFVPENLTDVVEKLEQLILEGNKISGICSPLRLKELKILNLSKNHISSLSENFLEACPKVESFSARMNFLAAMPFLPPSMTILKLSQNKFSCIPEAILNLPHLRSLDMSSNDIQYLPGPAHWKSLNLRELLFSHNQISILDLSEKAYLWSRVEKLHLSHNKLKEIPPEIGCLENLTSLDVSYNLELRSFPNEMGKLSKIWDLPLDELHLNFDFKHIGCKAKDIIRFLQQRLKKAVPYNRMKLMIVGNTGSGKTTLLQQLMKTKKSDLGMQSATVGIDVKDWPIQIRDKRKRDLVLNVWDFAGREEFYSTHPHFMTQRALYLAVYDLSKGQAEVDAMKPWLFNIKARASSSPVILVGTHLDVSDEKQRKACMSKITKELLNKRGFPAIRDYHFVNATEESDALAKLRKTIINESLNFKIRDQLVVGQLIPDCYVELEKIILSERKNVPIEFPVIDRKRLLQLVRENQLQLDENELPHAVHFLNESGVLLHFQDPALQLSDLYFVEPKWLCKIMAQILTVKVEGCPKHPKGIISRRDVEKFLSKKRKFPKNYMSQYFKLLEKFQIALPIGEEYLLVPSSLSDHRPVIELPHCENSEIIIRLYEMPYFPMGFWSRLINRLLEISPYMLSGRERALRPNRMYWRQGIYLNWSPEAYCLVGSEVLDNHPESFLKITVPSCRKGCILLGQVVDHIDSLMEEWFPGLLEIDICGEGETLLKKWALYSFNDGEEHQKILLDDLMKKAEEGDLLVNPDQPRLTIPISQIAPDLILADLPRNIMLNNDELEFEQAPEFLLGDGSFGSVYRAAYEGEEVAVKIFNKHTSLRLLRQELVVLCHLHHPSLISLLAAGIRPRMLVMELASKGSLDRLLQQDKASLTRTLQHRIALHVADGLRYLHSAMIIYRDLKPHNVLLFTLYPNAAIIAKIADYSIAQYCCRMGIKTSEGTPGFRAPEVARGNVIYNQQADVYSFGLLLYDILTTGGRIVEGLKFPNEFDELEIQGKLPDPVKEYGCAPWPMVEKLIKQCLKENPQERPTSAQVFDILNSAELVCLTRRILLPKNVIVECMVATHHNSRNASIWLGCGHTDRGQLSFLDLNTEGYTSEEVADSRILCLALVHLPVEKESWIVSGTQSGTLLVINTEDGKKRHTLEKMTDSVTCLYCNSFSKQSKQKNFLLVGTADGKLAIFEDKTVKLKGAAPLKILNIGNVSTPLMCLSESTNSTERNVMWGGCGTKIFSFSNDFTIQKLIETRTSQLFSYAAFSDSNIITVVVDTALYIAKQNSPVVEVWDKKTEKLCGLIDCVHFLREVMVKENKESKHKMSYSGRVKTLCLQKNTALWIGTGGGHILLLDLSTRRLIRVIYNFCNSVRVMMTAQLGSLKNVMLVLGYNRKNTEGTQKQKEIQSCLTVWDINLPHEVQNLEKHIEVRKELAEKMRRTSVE
T2 sequence (Q5S007 whole entry): as the sequence (Q5S007 whole entry G2019S) above, with S2019G counted along it

Consider `CC1=C(C(=O)Nc2ccc3[nH]nc(-c4ccnc(N5CCO[C@@H](CN6CCN(CC7CCN(c8ccc9c(c8)C(=O)N(C8CCC(=O)NC8=O)C9=O)CC7)CC6)C5)c4)c3c2)C(C)(C)n2nnnc2N1C` (stereo partly drawn) [compound 32, N-(3-{2-[(2S)-2-{[4-({1-[2-(2,6-dioxopiperidin-3-yl)-1,3-dioxo-2,3-dihydro-1H-isoindol-5-yl]piperidin-4-yl}methyl)piperazin-1-yl]methyl}morpholin-4-yl]pyridin-4-yl}-1H-indazol-5-yl)-4,5,7,7-tetramethyl-4H,7H-[1,2,3,4]tetrazolo[1,5-a]pyrimidine-6-carboxamide], for which the Dmax (as a rule, the greatest extent of degradation seen) at G2019S LRRK2 was less than 50%. Further, the values for the DC50 on G2019S LRRK2 and at wildtype LRRK2 were 0.01 to 0.05 µM and not below 0.1 µM, respectively.

For the compound `CC1=C(C(=O)Nc2ccc3[nH]nc(-c4ccnc(N5CCN(CCN6CCC(CN7CCN(c8ccc9c(c8)C(=O)N(C8CCC(=O)NC8=O)C9=O)CC7)CC6)CC5)c4)c3c2)C(C)(C)n2nnnc2N1C` (stereo not shown) [compound 33, N-{3-[2-(4-{2-[4-({4-[2-(2,6-dioxopiperidin-3-yl)-1,3-dioxo-2,3-dihydro-1H-isoindol-5-yl]piperazin-1-yl}methyl)piperidin-1-yl]ethyl}piperazin-1-yl)pyridin-4-yl]-1H-indazol-5-yl}-4,5,7,7-tetramethyl-4H,7H-[1,2,3,4]tetrazolo[1,5-a]pyrimidine-6-carboxamide], the Dmax on G2019S LRRK2 and on wildtype LRRK2 (read-out: ** WT Dmax (%)) was less than 50% throughout. Moreover, the DC50 on G2019S LRRK2 and at wildtype LRRK2 was not below 0.1 µM each time.

For the compound `CC1=C(C(=O)Nc2ccc3[nH]nc(-c4ccnc(N5CCN(CC6CCN(CC7CCN(c8ccc9c(c8)C(=O)N(C8CCC(=O)NC8=O)C9=O)CC7)CC6)[C@@H](C)C5)c4)c3c2)C(C)(C)n2nnnc2N1C` (stereo partly drawn) [compound 34, N-(3-{2-[(3S)-4-{[1-({1-[2-(2,6-dioxopiperidin-3-yl)-1,3-dioxo-2,3-dihydro-1H-isoindol-5-yl]piperidin-4-yl}methyl)piperidin-4-yl]methyl}-3-methylpiperazin-1-yl]pyridin-4-yl}-1H-indazol-5-yl)-4,5,7,7-tetramethyl-4H,7H-[1,2,3,4]tetrazolo[1,5-a]pyrimidine-6-carboxamide], at G2019S LRRK2, the greatest degradation seen (Dmax) is less than 50% and the DC50 – broadly, the midpoint of the concentration-degradation curve – is 0.01 to 0.05 µM. Besides, the DC50 at wildtype LRRK2 is not below 0.1 µM.

At G2019S LRRK2, `CC1=C(C(=O)Nc2ccc3[nH]nc(-c4ccnc(N5CCN(CCN6CCN(CC7CCN(c8ccc9c(c8)C(=O)N(C8CCC(=O)NC8=O)C9=O)CC7)CC6)CC5)c4)c3c2)C(C)(C)n2nnnc2N1C` (stereo not shown) [compound 35, N-{3-[2-(4-{2-[4-({1-[2-(2,6-dioxopiperidin-3-yl)-1,3-dioxo-2,3-dihydro-1H-isoindol-5-yl]piperidin-4-yl}methyl)piperazin-1-yl]ethyl}piperazin-1-yl)pyridin-4-yl]-1H-indazol-5-yl}-4,5,7,7-tetramethyl-4H,7H-[1,2,3,4]tetrazolo[1,5-a]pyrimidine-6-carboxamide] showed a Dmax of less than 50% and a DC50 of 0.01 to 0.05 µM. For the same compound, the half-maximal degradation concentration (DC50) on wildtype LRRK2 is not below 0.1 µM.

`CC1=C(C(=O)Nc2ccc3[nH]nc(-c4ccnc(N5CCN(CCN6CCC(CN7CCN(c8ccc9c(c8)C(=O)N(C8CCC(=O)NC8=O)C9=O)CC7)CC6)[C@@H](C)C5)c4)c3c2)C(C)(C)n2nnnc2N1C` (stereo partly drawn) [compound 36, N-(3-{2-[(3S)-4-{2-[4-({4-[2-(2,6-dioxopiperidin-3-yl)-1,3-dioxo-2,3-dihydro-1H-isoindol-5-yl]piperazin-1-yl}methyl)piperidin-1-yl]ethyl}-3-methylpiperazin-1-yl]pyridin-4-yl}-1H-indazol-5-yl)-4,5,7,7-tetramethyl-4H,7H-[1,2,3,4]tetrazolo[1,5-a]pyrimidine-6-carboxamide]: the Dmax on G2019S LRRK2 is less than 50%. Besides, the DC50 at G2019S LRRK2 and at wildtype LRRK2 was not below 0.1 µM each time.

For the origin of these results see patent US12473294B2, “Selective modulators of mutant LRRK2 proteolysis and associated methods of use” (Arvinas Operations, Inc., priority 2020, dated 2025).
